According to US20070142427A1, “Noncyclic 1,3-Dicarbonyl compounds as dual PPAR agonists with potent antihyperglycemic and antihyperlipidemic activity” (Shenzhen Chipscreen Biosciences Ltd., priority 2002, published 2007):

Experiments:
[1] = tested on: db/db mice; assay: Blood triglyceride lowering in db/db mice in vivo; conditions: male db/db mice, once daily gavage for 9 days; measured at day 9 after 3 hours fasting after dosing, tail blood, Roche Strips (FIG. 4)
Procedure: (§1) 7 week-old male db/db (C57BLKS/J-m+/+Lepr^db) mice (n=10) from Jackson Laboratories (Bar Harbor, Me.) were treated once daily with indicated doses of the compound by gavage feeding at each morning for 9 consecutive days. All animals were maintained under standardized conditions (12-hour light/dark cycle, 22° C.). At day 9 of the treatment, blood triglyceride level was measured after 3 hours fasting after dosing by taking tail blood using Roche Strips.

[2] = tested on: db/db mice; assay: Blood glucose lowering in db/db mice in vivo; conditions: male db/db mice, once daily gavage for 9 days; measured at day 9 after 3 hours fasting after dosing, tail blood, Bayer Strips (FIG. 3)
Procedure: as §1, with “glucose” for “triglyceride”, “Bayer” for “Roche”

For `COC(=O)C(Cc1ccc(OCCOc2ccc3c(c2)CCCC3)cc1)C(=O)OC` [CS-01300012, dimethyl 4-[2-(5,6,7,8-tetrahydro-2-naphthoxy)ethoxy] benzylmalonate], the blood triglyceride level [1] was “effective in lowering blood triglyceride level” and the blood glucose level [2] was “effective in lowering blood glucose level”.
